ChEMBL document CHEMBL1151504, “Structure-activity relationships of double-strand RGD peptides as GPIIb/IIIa receptor antogonists” (Bioorg Med Chem Lett, 1994)
Numbered stars: 1 amine (or outer) side, 2 acyl side, 3 side chain; on linkers, the order of the positions; unused ones are H or OH. Bridge positions count the residues as written; N and C are the ends. Square brackets hold non-standard residues; d marks the D form. Peptide text beside a SMILES is read from it. I, II: the chains in the order shown. * marks the point of attachment. Benzoyl(4-guanidino) = N=C(N)Nc1ccc(C(=O)*)cc1; X1 = NC(=O)c1cc(N[*:1])cc(N[*:2])c1; Adipoyl = O=C(CCCCC(=O)[*:2])[*:1]; Glutaryl = O=C(CCCC(=O)[*:2])[*:1]; Suc = O=C(CCC(=O)[*:2])[*:1]; X2 = O=C1Oc2ccccc2CC1C(=O)*; 3Abz = Nc1cccc(C(=O)O)c1; 4Abz = Nc1ccc(C(=O)O)cc1; 2Abz = Nc1ccccc1C(=O)O; Hexanoyl = CCCCCC(=O)*; Bz = O=C(c1ccccc1)*

Organism: Homo sapiens
Experiment: In vitro inhibition of ADP induced human platelet aggregation in platelet rich plasma(PRP) and presence of Tris buffer.
Format: functional

IC50 [µM]	Compound
13	N=C(N)NCCC[C@@H](NC(=O)c1ccccc1C(=O)N[C@@H](CCCN=C(N)N)C(=O)NCC(=O)N[C@@H](CC(=O)O)C(=O)N[C@@H](Cc1ccccc1)C(=O)O)C(=O)NCC(=O)N[C@H](CC(=O)O)C(=O)N[C@H](Cc1ccccc1)C(=O)O
14	N=C(N)NCCC[C@H](NC(=O)CCCCC(=O)N[C@@H](CCCNC(=N)N)C(=O)NCC(=O)N[C@@H](CC(=O)O)C(=O)N[C@@H](Cc1ccccc1)C(=O)O)C(=O)NCC(=O)N[C@@H](CC(=O)O)C(=O)N[C@@H](Cc1ccccc1)C(=O)O (I: RGDF-OH / II: RGDF-OH; linker I:N-II:N via Adipoyl)
4.1	CC(=O)N[C@@H](CCCN=C(N)N)C(=O)NCC(=O)N[C@@H](CC(=O)O)C(=O)N[C@@H](Cc1ccccc1)C(=O)N1CCC[C@H]1C(=O)NCCCC[C@H](NC(=O)[C@@H]1CCCN1C(=O)[C@H](Cc1ccccc1)NC(=O)[C@H](CC(=O)O)NC(=O)CNC(=O)[C@H](CCCN=C(N)N)NC(C)=O)C(N)=O (I: Ac-RGDFPK-NH2 / II: Ac-RGDFP; amide I:6-II:C)
33	NCC(=O)N[C@@H](CCCN=C(N)N)C(=O)NCC(=O)N[C@@H](CC(=O)O)C(=O)N[C@@H](Cc1ccccc1)C(=O)NCC(=O)Nc1cc(NC(=O)CNC(=O)[C@H](Cc2ccccc2)NC(=O)[C@H](CC(=O)O)NC(=O)CNC(=O)[C@H](CCCN=C(N)N)NC(=O)CN)cc(C(=O)NCC(=O)N[C@@H](CCCN=C(N)N)C(=O)NCC(=O)N[C@@H](CC(=O)O)C(=O)N[C@@H](Cc2ccccc2)C(N)=O)c1
35	NCC(=O)N[C@@H](CCCN=C(N)N)C(=O)NCC(=O)N[C@@H](CC(=O)O)C(=O)N[C@@H](Cc1ccccc1)C(=O)NCC(=O)Nc1ccc(C(=O)NCC(=O)N[C@@H](CCCN=C(N)N)C(=O)NCC(=O)N[C@@H](CC(=O)O)C(=O)N[C@@H](Cc2ccccc2)C(=O)O)cc1 (H-GRGDFG[4Abz]GRGDF-OH)
22	NC(N)=NCCC[C@H](NC(=O)C1CC(NC(=O)[C@H](Cc2ccccc2)NC(=O)[C@H](CC(=O)O)NC(=O)CNC(=O)[C@@H](N)CCCN=C(N)N)CC(NC(=O)[C@H](Cc2ccccc2)NC(=O)[C@H](CC(=O)O)NC(=O)CNC(=O)[C@@H](N)CCCN=C(N)N)C1)C(=O)NCC(=O)N[C@@H](CC(=O)O)C(=O)N[C@@H](Cc1ccccc1)C(=O)O (stereo partly specified)
2.6	N=C(N)NCCC[C@H](NC(=O)c1ccccc1)C(=O)NCC(=O)N[C@@H](CC(=O)O)C(=O)N[C@@H](Cc1ccccc1)C(=O)NCCCC[C@H](NC(=O)[C@H](Cc1ccccc1)NC(=O)[C@H](CC(=O)O)NC(=O)CNC(=O)[C@H](CCCN=C(N)N)NC(=O)c1ccccc1)C(N)=O
7.4	N=C(N)NCCC[C@H](NC(=O)c1ccccc1)C(=O)NCC(=O)N[C@@H](CC(=O)O)C(=O)N[C@@H](Cc1ccccc1)C(=O)NC1CC(NC(=O)[C@H](Cc2ccccc2)NC(=O)[C@H](CC(=O)O)NC(=O)CNC(=O)[C@H](CCCN=C(N)N)NC(=O)c2ccccc2)CC(C(=O)N[C@@H](CCCN=C(N)N)C(=O)NCC(=O)N[C@@H](CC(=O)O)C(=O)N[C@@H](Cc2ccccc2)C(=O)O)C1 (stereo partly specified)
0.087	N=C(N)NCCC[C@H](NC(=O)[C@H](CO)NC(=O)c1ccc(NC(=N)N)cc1)C(=O)NCC(=O)N[C@@H](CC(=O)O)C(=O)N[C@@H](Cc1ccccc1)C(=O)N1CCC[C@H]1C(=O)NCCCC[C@H](NC(=O)[C@@H]1CCCN1C(=O)[C@H](Cc1ccccc1)NC(=O)[C@H](CC(=O)O)NC(=O)CNC(=O)[C@H](CCCNC(=N)N)NC(=O)[C@H](CO)NC(=O)c1ccc(NC(=N)N)cc1)C(N)=O (I: {Benzoyl(4-guanidino)}-SRGDFPK-NH2 / II: {Benzoyl(4-guanidino)}-SRGDFP; amide I:7-II:C)
1.2	CCCCCC(=O)N[C@@H](CCCN=C(N)N)C(=O)NCC(=O)N[C@@H](CC(=O)O)C(=O)N[C@@H](Cc1ccccc1)C(=O)N1CCC[C@H]1C(=O)NCCCC[C@H](NC(=O)[C@@H]1CCCN1C(=O)[C@H](Cc1ccccc1)NC(=O)[C@H](CC(=O)O)NC(=O)CNC(=O)[C@H](CCCN=C(N)N)NC(=O)CCCCC)C(N)=O (I: Hexanoyl-RGDFPK-NH2 / II: Hexanoyl-RGDFP; amide I:6-II:C)
2	N=C(N)NCCC[C@H](NC(=O)C1Cc2ccccc2OC1=O)C(=O)NCC(=O)N[C@@H](CC(=O)O)C(=O)N[C@@H](Cc1ccccc1)C(=O)N1CCC[C@H]1C(=O)NCCCC[C@H](NC(=O)[C@@H]1CCCN1C(=O)[C@H](Cc1ccccc1)NC(=O)[C@H](CC(=O)O)NC(=O)CNC(=O)[C@H](CCCNC(=N)N)NC(=O)C1Cc2ccccc2OC1=O)C(N)=O (stereo partly specified) (I: X2-RGDFPK-NH2 / II: X2-RGDFP; amide I:6-II:C)
50	NC(=O)C1CC(NC(=O)[C@H](Cc2ccccc2)NC(=O)[C@H](CC(=O)O)NC(=O)CNC(=O)[C@@H](N)CCCN=C(N)N)CC(NC(=O)[C@H](Cc2ccccc2)NC(=O)[C@H](CC(=O)O)NC(=O)CNC(=O)[C@@H](N)CCCN=C(N)N)C1 (stereo partly specified)
63	NCC(=O)N[C@@H](CCCN=C(N)N)C(=O)NCC(=O)N[C@@H](CC(=O)O)C(=O)N[C@@H](Cc1ccccc1)C(=O)NCC(=O)Nc1ccccc1C(=O)NCC(=O)N[C@@H](CCCN=C(N)N)C(=O)NCC(=O)N[C@@H](CC(=O)O)C(=O)N[C@@H](Cc1ccccc1)C(=O)O (H-GRGDFG[2Abz]GRGDF-OH)
2.2	N=C(N)NCCC[C@H](NC(=O)c1ccccc1)C(=O)NCC(=O)N[C@@H](CC(=O)O)C(=O)N[C@@H](Cc1ccccc1)C(=O)N1CCC[C@H]1C(=O)NCCCC[C@H](NC(=O)[C@@H]1CCCN1C(=O)[C@H](Cc1ccccc1)NC(=O)[C@H](CC(=O)O)NC(=O)CNC(=O)[C@H](CCCN=C(N)N)NC(=O)c1ccccc1)C(N)=O (I: Bz-RGDFPK-NH2 / II: Bz-RGDFP; amide I:6-II:C)
35	NC(=O)[C@H](CCCCNC(=O)[C@H](Cc1ccccc1)NC(=O)[C@H](CC(=O)O)NC(=O)CNC(=O)[C@@H](N)CCCN=C(N)N)NC(=O)[C@H](Cc1ccccc1)NC(=O)[C@H](CC(=O)O)NC(=O)CNC(=O)[C@@H](N)CCCN=C(N)N
0.35	CCCCCC(=O)N[C@@H](CCCN=C(N)N)C(=O)NCC(=O)N[C@@H](CC(=O)O)C(=O)N[C@@H](Cc1ccccc1)C(=O)N1CCC[C@H]1C(=O)NCC(=O)Nc1cc(NC(=O)CNC(=O)[C@H]2CCCN2C(=O)[C@@H](Cc2ccccc2)NC(=O)[C@@H](CC(=O)O)NC(=O)CNC(=O)[C@@H](CCCN=C(N)N)NC(=O)CCCCC)cc(C(N)=O)c1
13	NC(=O)c1cc(NC(=O)CNC(=O)[C@@H]2CCCN2C(=O)[C@H](Cc2ccccc2)NC(=O)[C@H](CC(=O)O)NC(=O)CNC(=O)[C@@H](N)CCCN=C(N)N)cc(NC(=O)CNC(=O)[C@@H]2CCCN2C(=O)[C@H](Cc2ccccc2)NC(=O)[C@H](CC(=O)O)NC(=O)CNC(=O)[C@@H](N)CCCN=C(N)N)c1 (I: H-RGDFPG / II: H-RGDFPG; linker I:C-II:C via X1)
15	N=C(N)NCCC[C@H](NC(=O)CCC(=O)N[C@@H](CCCNC(=N)N)C(=O)NCC(=O)N[C@@H](CC(=O)O)C(=O)N[C@@H](Cc1ccccc1)C(=O)O)C(=O)NCC(=O)N[C@@H](CC(=O)O)C(=O)N[C@@H](Cc1ccccc1)C(=O)O (I: RGDF-OH / II: RGDF-OH; linker I:N-II:N via Suc)
19	NCC(=O)N[C@@H](CCCN=C(N)N)C(=O)NCC(=O)N[C@@H](CC(=O)O)C(=O)N[C@@H](Cc1ccccc1)C(=O)NCC(=O)Nc1cccc(C(=O)NCC(=O)N[C@@H](CCCN=C(N)N)C(=O)NCC(=O)N[C@@H](CC(=O)O)C(=O)N[C@@H](Cc2ccccc2)C(=O)O)c1 (H-GRGDFG[3Abz]GRGDF-OH)
15	N=C(N)NCCC[C@H](NC(=O)CCCC(=O)N[C@@H](CCCNC(=N)N)C(=O)NCC(=O)N[C@@H](CC(=O)O)C(=O)N[C@@H](Cc1ccccc1)C(=O)O)C(=O)NCC(=O)N[C@@H](CC(=O)O)C(=O)N[C@@H](Cc1ccccc1)C(=O)O (I: RGDF-OH / II: RGDF-OH; linker I:N-II:N via Glutaryl)
2.3	CCCCCC(=O)N[C@@H](CCCN=C(N)N)C(=O)NCC(=O)N[C@@H](CC(=O)O)C(=O)N[C@@H](Cc1ccccc1)C(=O)NCCCC[C@H](NC(=O)[C@H](Cc1ccccc1)NC(=O)[C@H](CC(=O)O)NC(=O)CNC(=O)[C@H](CCCN=C(N)N)NC(=O)CCCCC)C(N)=O
